This passage reports IC50, EC50 and AC50 results from ChEMBL document CHEMBL1201862, “PubChem BioAssay data set” (2004).

Active and inactive are the calls of the source. Some results are limits rather than exact numbers.

One test addresses SUMO E1/E2 (Homo sapiens, UniProt P63279+Q9UBE0+Q9UBT2). Description: SAR analysis of SUMOylation using HTRF in an in-Vitro dose response assay. [Related pubchem assays (depositor defined):AID2006, AID2011, AID2018, AID2069, AID2658]. In kind it is functional. A general note: TR-FRET usually uses a lanthanide donor and a delayed reading to cut background.
Test [1] deals with T1, G-protein coupled receptor 35 (Homo sapiens, UniProt Q9HC97). Description: SAR analysis of Agonists of the GPR35 Receptor using an Image-Based Assay - Set 4. [Related pubchem assays (depositor defined):AID2013, AID2026]. In kind it is functional.
T1 sequence (Q9HC97 whole entry): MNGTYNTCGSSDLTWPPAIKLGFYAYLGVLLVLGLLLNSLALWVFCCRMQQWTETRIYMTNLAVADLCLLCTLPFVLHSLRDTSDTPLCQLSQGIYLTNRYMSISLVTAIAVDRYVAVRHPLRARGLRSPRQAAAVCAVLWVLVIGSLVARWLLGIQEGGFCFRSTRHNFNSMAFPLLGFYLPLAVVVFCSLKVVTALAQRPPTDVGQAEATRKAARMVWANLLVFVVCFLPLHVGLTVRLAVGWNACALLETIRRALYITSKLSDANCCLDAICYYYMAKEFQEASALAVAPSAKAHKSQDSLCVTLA
The target in test [2] is T2, Cannabinoid receptor 1 (Homo sapiens, UniProt P21554). Description: SAR analysis of agonists of the Cannabinoid Receptor 1 using an Image-Based Assay - Set 4. [Related pubchem assays (depositor defined):AID2013, AID2026]. In kind it is functional.
T2 sequence (P21554 whole entry): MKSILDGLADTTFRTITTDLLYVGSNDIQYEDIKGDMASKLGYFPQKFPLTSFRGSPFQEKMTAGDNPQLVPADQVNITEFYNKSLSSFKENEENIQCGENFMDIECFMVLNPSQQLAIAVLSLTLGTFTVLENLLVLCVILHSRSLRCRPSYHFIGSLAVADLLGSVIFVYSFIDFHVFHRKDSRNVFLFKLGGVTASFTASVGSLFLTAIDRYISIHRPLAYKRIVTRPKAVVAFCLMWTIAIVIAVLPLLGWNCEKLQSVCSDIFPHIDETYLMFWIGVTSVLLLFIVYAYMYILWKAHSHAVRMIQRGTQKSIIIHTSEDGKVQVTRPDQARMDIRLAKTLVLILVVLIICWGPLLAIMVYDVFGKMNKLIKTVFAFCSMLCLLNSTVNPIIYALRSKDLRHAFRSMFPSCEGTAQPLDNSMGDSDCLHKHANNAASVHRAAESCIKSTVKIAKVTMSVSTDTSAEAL
Test [3] concerns the target T1, G-protein coupled receptor 35. Description: SAR analysis of Antagonists of the GPR35 Receptor using an Image-Based Assay - Set 6. [Related pubchem assays (depositor defined):AID2013, AID2026]. In kind it is functional.
The target of test [4] is T2, Cannabinoid receptor 1. Description: SAR analysis of antagonists of the Cannabinoid Receptor 1 using an Image-Based Assay - Set 4. [Related pubchem assays (depositor defined):AID2013, AID2026]. In kind it is functional.
The target of test [5] is T3, G-protein coupled receptor 55 (Homo sapiens, UniProt Q9Y2T6). Description: SAR Analysis of Selective Antagonists of GPR55 using an Image-Based Assay - Set 4. [Related pubchem assays (depositor defined):AID2013, AID2026]. In kind it is functional.
T3 sequence (Q9Y2T6 whole entry): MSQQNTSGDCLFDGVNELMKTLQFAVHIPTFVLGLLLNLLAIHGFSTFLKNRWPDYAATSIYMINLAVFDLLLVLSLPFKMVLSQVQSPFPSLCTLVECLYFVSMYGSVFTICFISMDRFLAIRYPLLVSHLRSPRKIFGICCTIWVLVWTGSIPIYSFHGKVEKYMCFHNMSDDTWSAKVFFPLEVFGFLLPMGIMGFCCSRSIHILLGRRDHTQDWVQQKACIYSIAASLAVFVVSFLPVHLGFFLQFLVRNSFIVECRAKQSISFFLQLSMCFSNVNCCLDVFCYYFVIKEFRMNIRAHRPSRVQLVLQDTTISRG
Test [6] addresses T4, Cannabinoid receptor 2 (Homo sapiens, UniProt P34972). Description: SAR analysis of antagonists of the Cannabinoid Receptor 2 using an Image-Based Assay - Set 3. [Related pubchem assays (depositor defined):AID2013, AID2026]. In kind it is functional.
The target of test [7] is T4, Cannabinoid receptor 2. Description: SAR analysis of agonists of the Cannabinoid Receptor 2 using an Image-Based Assay - Set 3. [Related pubchem assays (depositor defined):AID2013, AID2026]. In kind it is functional.
Test [8] addresses T1, G-protein coupled receptor 35. Description: SAR Analysis for the identification of Selective Antagonists of ERK1/2 Activity in GPR35-Overexpressing U2OS Cells. [Related pubchem assays: 2079, 2058 ]. In kind it is functional, cell-based.
The target in test [9] is T5, Tyrosine-protein phosphatase non-receptor type 12 (Homo sapiens, UniProt Q05209).
T5 sequence (Q05209 whole entry): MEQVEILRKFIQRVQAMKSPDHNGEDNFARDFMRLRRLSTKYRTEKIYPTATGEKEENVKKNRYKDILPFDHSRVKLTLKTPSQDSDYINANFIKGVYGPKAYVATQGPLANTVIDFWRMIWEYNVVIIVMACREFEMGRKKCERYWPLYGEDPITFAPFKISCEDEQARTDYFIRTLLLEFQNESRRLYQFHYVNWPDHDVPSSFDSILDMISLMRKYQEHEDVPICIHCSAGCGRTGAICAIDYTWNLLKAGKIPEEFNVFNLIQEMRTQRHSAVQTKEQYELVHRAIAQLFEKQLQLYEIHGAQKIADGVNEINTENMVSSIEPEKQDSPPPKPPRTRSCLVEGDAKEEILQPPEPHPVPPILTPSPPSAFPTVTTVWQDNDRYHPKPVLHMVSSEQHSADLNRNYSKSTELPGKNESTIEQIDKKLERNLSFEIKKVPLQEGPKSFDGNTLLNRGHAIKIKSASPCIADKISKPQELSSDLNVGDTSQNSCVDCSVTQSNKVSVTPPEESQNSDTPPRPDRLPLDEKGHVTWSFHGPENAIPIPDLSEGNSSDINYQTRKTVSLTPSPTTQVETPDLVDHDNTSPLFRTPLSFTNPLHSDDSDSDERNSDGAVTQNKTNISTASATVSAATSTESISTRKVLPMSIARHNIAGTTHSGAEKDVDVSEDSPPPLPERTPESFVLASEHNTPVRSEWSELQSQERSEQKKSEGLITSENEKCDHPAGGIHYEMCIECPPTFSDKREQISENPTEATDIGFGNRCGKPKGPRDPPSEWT
Description: SAR Selectivity Analysis of small molecule inhibitors of PEST using pCAP in a fluorescence assay. [Related pubchem assays (depositor defined):AID1779, AID1784, AID2135]. In kind it is functional.

Test [10] concerns the target T6, Tyrosine-protein phosphatase non-receptor type 22 (Homo sapiens, UniProt Q9Y2R2).
T6 sequence (Q9Y2R2 whole entry): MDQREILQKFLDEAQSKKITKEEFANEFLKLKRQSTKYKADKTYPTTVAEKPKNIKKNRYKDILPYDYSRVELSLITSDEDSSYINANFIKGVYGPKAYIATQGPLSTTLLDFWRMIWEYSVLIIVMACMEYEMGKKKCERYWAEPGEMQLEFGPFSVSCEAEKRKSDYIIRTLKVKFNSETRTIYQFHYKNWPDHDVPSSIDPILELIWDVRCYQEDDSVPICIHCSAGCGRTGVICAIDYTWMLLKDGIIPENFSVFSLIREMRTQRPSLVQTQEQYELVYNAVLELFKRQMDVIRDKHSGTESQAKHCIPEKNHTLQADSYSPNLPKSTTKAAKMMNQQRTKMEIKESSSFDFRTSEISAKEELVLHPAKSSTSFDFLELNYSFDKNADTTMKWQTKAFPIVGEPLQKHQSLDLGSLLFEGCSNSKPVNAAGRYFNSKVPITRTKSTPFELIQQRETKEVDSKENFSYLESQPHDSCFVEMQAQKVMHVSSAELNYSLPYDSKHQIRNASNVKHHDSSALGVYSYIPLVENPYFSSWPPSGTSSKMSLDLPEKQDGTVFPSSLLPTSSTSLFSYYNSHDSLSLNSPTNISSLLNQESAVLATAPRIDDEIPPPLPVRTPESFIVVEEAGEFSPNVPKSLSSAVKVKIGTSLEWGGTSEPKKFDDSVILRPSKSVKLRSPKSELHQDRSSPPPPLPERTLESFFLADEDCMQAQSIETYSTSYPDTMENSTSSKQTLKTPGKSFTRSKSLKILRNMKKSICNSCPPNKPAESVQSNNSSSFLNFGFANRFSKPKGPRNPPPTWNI
Description: SAR LYP1 Fluorescent Assay using OMFP substrate for In Vitro dose response studies - Set 3. [Related pubchem assays (depositor defined):AID1779, AID1784, AID2140, AID2686]. In kind it is functional.

Test [11] has as its target T7, Tyrosine-protein phosphatase non-receptor type 7 (Homo sapiens, UniProt P35236).
T7 sequence (P35236 whole entry): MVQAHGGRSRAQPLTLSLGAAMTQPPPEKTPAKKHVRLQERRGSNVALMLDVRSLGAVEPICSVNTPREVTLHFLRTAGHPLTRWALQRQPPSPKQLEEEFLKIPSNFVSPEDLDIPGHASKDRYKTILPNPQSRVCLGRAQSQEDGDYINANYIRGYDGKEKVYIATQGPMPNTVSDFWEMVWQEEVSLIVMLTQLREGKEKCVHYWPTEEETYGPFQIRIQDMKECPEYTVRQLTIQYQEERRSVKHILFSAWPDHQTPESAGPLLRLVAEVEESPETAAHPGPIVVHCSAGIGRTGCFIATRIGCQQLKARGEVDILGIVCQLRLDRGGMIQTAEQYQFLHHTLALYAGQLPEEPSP
Description: HePTP (PTPN7) phosphatase inhibitor potency, SAR follow-up, biochemical, set 2 (AID 449736). In kind it is functional.

In test [12] the target is T6, Tyrosine-protein phosphatase non-receptor type 22. Description: LYP (PTPN22) phosphatase inhibitor potency, SAR follow-up, biochemical, pCAP fluorogenic substrate, fluorescence, set 3 (AID 449727). In kind it is functional.
Test [13] concerns the target T3, G-protein coupled receptor 55. Description: GPR55 antagonists, SAR follow-up, counter-screen for GPR35 antagonist project, imaging, image-based (AID 2397). In kind it is functional. Background: The purpose of a counterscreen is to sort out artefacts and off-target activity.
Another test has as its target Exodeoxyribonuclease V (Escherichia coli (strain K12), UniProt P04993+P07648+P08394). Description: E. coli RecBCD inhibitors, dose response, counter-screen for AddAB inhibitor project, absorbance, V66 E. coli, mutant T4 phage (AID 492957). In kind it is functional, cell-based, Escherichia coli str. K-12 substr. MG1655.
Another test deals with Nonstructural protein 1 (Influenza A virus, UniProt Q194T2). In kind it is functional, Influenza A virus (A/California/07/2009(H1N1)).
Nonstructural protein 1, sequence (Q194T2 whole entry): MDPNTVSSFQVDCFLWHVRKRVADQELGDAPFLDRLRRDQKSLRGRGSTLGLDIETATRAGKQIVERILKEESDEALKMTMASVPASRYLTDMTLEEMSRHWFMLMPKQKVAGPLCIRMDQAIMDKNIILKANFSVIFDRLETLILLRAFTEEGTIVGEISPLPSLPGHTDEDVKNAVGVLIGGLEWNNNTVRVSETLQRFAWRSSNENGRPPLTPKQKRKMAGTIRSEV
The nature of test [14]: Counterscreen for AddAB inhibitors: absorbance-based bacterial cell-based high throughput dose response assay for inhibitors of bacterial viability. [Related pubchem assays (depositor defined):AID435030, AID449728, AID449731, AID488942, AID488955, AID488956]. In kind it is functional.
A further test concerns INS1. Description: beta cell apoptosis inhibitors, cytokine rescue, dose response, luminescence, retest (AID 449756).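 Note: cell death triggered by IL-1 beta plus TNF-alpha plus IFN-gamma mixture; protective hits raise ATP signal compared with cytokine alone wells.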 In kind it is functional, cell-based. The following applies: Rattus norvegicus, INS1.
For another test, the target named is T8, CAAX prenyl protease 2 (Saccharomyces cerevisiae S288c, UniProt Q03530).
T8 sequence (Q03530 whole entry): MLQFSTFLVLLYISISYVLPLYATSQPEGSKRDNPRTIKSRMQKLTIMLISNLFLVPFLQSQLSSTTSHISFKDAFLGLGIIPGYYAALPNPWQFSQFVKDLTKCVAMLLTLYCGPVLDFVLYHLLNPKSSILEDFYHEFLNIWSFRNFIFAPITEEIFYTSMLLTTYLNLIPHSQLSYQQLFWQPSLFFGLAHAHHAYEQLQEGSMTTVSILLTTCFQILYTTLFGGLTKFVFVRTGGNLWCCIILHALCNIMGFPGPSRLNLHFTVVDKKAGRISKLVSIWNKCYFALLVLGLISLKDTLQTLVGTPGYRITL
In kind it is biochemical.

In the next test the target is CAAX prenyl protease 1 (Saccharomyces cerevisiae S288c, UniProt P47154). Description: Ste24 protease inhibitors, dose response, biochemical, S. cerevisiae, plate reader, cherry-pick (AID 488815).
CAAX prenyl protease 1, sequence (P47154 whole entry): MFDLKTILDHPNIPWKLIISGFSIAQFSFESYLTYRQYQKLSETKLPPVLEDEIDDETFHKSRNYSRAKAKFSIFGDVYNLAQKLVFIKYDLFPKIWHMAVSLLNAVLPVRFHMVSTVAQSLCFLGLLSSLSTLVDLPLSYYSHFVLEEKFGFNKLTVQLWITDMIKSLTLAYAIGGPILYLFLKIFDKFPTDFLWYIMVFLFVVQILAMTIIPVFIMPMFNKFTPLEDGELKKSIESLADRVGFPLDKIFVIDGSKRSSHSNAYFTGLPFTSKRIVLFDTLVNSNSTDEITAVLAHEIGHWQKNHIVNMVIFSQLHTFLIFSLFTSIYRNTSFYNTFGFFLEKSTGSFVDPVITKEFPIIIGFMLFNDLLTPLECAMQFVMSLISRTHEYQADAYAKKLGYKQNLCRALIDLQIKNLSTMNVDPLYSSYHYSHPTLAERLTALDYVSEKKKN
Test [15] deals with Intestinal-type alkaline phosphatase (Homo sapiens, UniProt P09923). Description: activation of human intestinal alkaline phosphatase – biochemical, dose response (AID 488873). In kind it is functional.
Intestinal-type alkaline phosphatase (Homo sapiens, UniProt P09923), sequence (P09923 whole entry): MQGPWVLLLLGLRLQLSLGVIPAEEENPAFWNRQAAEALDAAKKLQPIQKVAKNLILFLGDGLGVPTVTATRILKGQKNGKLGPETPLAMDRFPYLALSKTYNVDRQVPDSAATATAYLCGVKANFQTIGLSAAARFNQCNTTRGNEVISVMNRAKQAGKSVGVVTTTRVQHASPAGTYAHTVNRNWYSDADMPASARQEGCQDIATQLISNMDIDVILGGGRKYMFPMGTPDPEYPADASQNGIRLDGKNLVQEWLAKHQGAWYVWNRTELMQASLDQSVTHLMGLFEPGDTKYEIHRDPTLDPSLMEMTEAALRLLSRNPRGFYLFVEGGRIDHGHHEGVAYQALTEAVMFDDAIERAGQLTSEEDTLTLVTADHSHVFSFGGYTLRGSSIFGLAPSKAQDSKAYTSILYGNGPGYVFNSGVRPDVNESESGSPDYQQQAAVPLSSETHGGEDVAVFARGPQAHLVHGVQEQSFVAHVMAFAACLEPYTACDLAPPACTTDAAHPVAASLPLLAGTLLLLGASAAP
Test [16] addresses Intestinal-type alkaline phosphatase (Mus musculus, UniProt P24822). Description: mouse intestinal alkaline phosphatase activators, dose response, biochemical, luminescence, uHTS hits (AID 488783). In kind it is functional.
Test [17] has as its target T9, Alkaline phosphatase, tissue-nonspecific isozyme (Homo sapiens, UniProt P05186).
T9 sequence (P05186 whole entry): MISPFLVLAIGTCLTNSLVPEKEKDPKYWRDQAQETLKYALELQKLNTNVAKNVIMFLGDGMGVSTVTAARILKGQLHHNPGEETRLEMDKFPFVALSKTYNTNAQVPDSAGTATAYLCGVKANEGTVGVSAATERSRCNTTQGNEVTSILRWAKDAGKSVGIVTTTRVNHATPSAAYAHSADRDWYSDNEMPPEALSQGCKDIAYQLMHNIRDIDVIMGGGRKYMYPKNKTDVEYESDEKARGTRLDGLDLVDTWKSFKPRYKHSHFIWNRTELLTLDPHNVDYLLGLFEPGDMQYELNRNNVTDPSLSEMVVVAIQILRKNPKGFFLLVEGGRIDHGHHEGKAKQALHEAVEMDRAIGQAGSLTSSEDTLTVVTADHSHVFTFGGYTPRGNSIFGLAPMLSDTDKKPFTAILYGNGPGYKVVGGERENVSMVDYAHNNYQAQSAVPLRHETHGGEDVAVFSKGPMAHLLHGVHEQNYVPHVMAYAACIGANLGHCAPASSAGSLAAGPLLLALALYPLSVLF
Description: TNAP enzyme activators, dose response, selectivity assay for mouse IAP activator project, biochemical, TNAP isozyme, mouse IAP uHTS hits (AID 488880). In kind it is functional.

T4 sequence (P34972 whole entry): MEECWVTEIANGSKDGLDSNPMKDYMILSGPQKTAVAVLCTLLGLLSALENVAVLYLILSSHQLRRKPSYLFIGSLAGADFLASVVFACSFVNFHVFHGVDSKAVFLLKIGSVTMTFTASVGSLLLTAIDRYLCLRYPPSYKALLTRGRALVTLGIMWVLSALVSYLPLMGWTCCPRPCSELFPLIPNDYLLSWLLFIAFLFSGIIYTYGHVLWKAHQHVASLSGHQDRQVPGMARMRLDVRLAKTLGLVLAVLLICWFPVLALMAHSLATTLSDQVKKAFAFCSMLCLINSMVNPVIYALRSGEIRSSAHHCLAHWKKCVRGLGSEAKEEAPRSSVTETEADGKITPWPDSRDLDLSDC
SUMO E1/E2, sequence (Q9UBE0 whole entry): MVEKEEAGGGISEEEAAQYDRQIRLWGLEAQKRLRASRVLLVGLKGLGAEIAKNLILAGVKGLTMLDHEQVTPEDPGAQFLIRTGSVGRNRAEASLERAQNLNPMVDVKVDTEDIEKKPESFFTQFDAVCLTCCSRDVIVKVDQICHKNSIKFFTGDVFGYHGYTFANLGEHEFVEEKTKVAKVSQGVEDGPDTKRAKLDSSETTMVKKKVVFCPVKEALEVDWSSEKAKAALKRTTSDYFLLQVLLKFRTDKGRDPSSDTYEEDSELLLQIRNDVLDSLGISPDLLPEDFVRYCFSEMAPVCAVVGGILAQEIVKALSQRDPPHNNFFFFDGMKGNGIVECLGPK
SUMO E1/E2, sequence (Q9UBT2 whole entry): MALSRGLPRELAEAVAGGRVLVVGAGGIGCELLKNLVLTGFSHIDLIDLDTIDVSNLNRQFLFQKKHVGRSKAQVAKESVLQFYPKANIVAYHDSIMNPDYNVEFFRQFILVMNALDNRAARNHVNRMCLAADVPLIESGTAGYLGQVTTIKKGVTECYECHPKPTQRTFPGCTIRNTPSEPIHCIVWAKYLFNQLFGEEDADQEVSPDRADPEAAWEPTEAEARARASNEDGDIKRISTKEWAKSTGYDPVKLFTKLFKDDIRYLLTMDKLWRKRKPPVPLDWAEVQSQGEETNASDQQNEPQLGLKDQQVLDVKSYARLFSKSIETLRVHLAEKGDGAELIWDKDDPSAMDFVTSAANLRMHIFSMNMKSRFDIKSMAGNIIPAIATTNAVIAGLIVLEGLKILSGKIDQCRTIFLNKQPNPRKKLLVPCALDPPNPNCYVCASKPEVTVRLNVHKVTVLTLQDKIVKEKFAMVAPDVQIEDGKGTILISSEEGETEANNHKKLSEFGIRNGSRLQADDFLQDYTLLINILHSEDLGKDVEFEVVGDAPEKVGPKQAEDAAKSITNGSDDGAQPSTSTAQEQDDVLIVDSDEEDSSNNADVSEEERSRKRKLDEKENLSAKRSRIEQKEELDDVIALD
SUMO E1/E2, sequence (P63279 whole entry): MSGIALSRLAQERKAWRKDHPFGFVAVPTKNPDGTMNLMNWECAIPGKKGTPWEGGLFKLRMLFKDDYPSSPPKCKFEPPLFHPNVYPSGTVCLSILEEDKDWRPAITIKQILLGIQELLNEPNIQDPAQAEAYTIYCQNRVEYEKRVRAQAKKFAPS
Intestinal-type alkaline phosphatase (Mus musculus, UniProt P24822), sequence (P24822 whole entry): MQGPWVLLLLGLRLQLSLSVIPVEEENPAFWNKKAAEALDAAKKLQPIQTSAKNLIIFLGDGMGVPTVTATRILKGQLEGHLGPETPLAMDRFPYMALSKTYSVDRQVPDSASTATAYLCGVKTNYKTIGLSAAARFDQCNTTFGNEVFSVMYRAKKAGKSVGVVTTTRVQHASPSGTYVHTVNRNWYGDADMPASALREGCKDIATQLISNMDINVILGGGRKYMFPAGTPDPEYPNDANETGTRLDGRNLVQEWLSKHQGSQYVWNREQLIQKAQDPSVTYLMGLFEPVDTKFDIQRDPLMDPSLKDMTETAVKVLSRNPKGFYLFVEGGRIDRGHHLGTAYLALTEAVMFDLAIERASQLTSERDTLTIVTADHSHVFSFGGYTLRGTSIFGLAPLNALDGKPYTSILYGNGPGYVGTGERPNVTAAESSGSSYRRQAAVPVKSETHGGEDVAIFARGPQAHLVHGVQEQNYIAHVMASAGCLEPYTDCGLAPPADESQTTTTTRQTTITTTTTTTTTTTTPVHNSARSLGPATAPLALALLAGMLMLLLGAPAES

As to `Cc1ccc(N=Cc2sccc2C)cc1C`, the IC50 on SUMO E1/E2 is > 100 µM (inactive).
In the case of `COc1ccc(-c2c(-c3ccc(OCCN4CCOCC4)cc3O)n[nH]c2C)cc1`, the EC50 (in test [1]; on Cannabinoid receptor 1 [2]; on Cannabinoid receptor 2 [7]) was > 32 µM (inactive) each time. Moreover, the IC50 was > 32 µM (inactive) in test [3], 3.78 µM (active) on Cannabinoid receptor 1 [4], > 32 µM (inactive) in test [5] and 26.8 µM (inactive) on Cannabinoid receptor 2 [6].
`COc1ccc(/C=C2\SC(=S)N(CCCC(=O)Nc3ccc(C(=O)O)c(O)c3)C2=O)cc1OC`: the IC50 in [8] is 0.522 µM (active); in test [9], 17.9 µM (active); in test [10], > 100 µM (inactive); in [11], 9.74 µM (active); in test [12], 58.5 µM (active); in test [13], > 32 µM (inactive).
Consider `Nc1c(Cl)ncnc1N/N=C/c1ccc2ccccc2n1`, for which the IC50 at Exodeoxyribonuclease V was > 119 µM (inactive); at Nonstructural protein 1, 8.42 µM (active); in [14], > 119 µM (inactive). For the same molecule, in the test on INS1, the AC50 is 0.825 µM (active).
For `Cc1cc(C)c2cc(C#N)c(NCCCNC(=O)CCC(=O)O)nc2c1`, the AC50 at CAAX prenyl protease 2 was 36.9 µM (active); at CAAX prenyl protease 1 it was 29.9 µM (active).
In the case of `Cc1ccc(NC(=O)CN(C)S(=O)(=O)c2ccc3[nH]c(=O)oc3c2)c(C)c1`, the EC50 is 61.3 µM (active) in test [15], 57.9 µM (active) in test [16] and 73.1 µM (active) in test [17].

Broadly, the IC50 is the concentration that gives 50% inhibition. In general, EC50 refers to the concentration giving half of the maximal effect. One may read the AC50 as the concentration at which the activity in the assay is half-maximal.
